Data published in patent US20260085062A1, “NOVEL COMPOUNDS AS CK2 INHIBITORS” (Cambridge Enterprise Limited, priority 2022, published 2026).

Experiments:
CLK2 = biological target: T1, CLK2 (Homo sapiens, UniProt P49760); test: Biochemical assay for inhibitors of CLK2 kinase activity (ADP-Glo); conditions: 20 nM CLK2, 50 μM peptide substrate, 100 μM ATP, read-out: Assay 2: CLK2 Enzyme IC50
T1 construct: purchased Carna Biosciences 04-127

CK2α = biological target: T2, CK2α (Homo sapiens, UniProt P68400); test: Biochemical assay for inhibitors of CK2α kinase activity (ADP-Glo); conditions: 0.2 nM CK2α, 50 μM peptide substrate, 15 μM ATP, read-out: Assay 1: CK2α Enzyme IC50
T2 construct: CK2α (residues 2-329) was produced in Escherichia coli BL21 (DE3) for kinase activity screening; His6 (N, cleaved yes); made in house; host or cells: Escherichia coli BL21 (DE3)
T2 sequence (P68400 2-329): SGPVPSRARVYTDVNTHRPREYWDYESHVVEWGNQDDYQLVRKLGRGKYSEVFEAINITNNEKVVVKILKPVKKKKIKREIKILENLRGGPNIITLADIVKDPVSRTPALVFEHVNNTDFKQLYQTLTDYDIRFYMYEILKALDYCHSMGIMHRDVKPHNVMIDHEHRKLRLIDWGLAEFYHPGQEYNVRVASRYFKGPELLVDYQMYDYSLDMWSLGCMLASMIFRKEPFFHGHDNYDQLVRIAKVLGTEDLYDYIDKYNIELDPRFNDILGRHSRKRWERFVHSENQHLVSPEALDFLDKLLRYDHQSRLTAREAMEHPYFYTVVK

intracellular CK2α = biological target: T3, intracellular CK2α (Homo sapiens, UniProt P19784); test: Cell-based NanoBRET assay for inhibitor binding to intracellular CK2α; conditions: HCT116 cells transiently transfected with CSNK2A2-NanoLuc fusion vector; Tracer K-5; 2 h; read-out: Assay 3: NanoBRET ™ assay for binding to intracellular CK2α
T3 construct: host or cells: HCT116 (ATCC CCL-247)
In short: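 Apparent affinity came from BRET ratio (acceptor/donor ×1,000), with donor read at 450 nm and acceptor at 610 or 630 nm. Compounds competed off a tracer added at fixed concentration to cells carrying a NanoLuc-CK2α fusion.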

T3 sequence (P19784 whole entry, the tested form may be a part): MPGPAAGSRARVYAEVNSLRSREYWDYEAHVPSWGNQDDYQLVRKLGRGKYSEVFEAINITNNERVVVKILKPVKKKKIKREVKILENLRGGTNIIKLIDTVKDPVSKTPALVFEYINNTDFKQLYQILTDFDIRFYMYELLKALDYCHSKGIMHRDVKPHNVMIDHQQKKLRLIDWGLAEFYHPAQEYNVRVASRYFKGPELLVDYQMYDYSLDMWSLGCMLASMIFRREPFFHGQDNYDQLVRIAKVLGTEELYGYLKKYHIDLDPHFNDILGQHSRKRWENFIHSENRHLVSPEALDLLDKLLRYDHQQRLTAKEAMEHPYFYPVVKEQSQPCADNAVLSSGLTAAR
T1 sequence (P49760 whole entry): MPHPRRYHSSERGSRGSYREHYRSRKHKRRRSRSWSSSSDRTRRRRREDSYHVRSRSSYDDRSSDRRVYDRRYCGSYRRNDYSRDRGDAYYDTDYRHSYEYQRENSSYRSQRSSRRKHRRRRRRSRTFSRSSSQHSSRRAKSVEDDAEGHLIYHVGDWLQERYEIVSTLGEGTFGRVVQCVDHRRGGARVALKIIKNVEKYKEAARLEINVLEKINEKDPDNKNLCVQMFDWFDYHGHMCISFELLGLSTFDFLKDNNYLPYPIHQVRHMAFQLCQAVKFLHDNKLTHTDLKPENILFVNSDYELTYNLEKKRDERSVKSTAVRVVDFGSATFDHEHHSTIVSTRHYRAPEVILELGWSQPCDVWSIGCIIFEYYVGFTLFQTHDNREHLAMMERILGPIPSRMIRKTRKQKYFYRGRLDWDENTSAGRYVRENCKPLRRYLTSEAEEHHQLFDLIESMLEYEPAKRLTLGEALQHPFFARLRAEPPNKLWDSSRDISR

SMILES | IC50 (CLK2) | IC50 (CK2α) | IC50 (intracellular CK2α)
FC(F)(F)Oc1ccc(CNCCCCOC2CN(c3cc(-n4cnnc4)cc4[nH]nnc34)C2)cc1Cl [Example 153, 4-((1-(6-(4H-1,2,4-triazol-4-yl)-1H-benzo[d][1,2,3]triazol-4-yl)azetidin-3-yl)oxy)-N-(3-chloro-4-(trifluoromethoxy)benzyl)butan-1-amine] | 11600 nM | 136 nM | 34.2 µM
Fc1cc(CNCCCCOC2CN(c3cc(-c4ccnnc4)cc4[nH]ncc34)C2)ccc1OC(F)(F)F [Example 108, N-(3-fluoro-4-(trifluoromethoxy)benzyl)-4-((1-(6-(pyridazin-4-yl)-1H-indazol-4-yl)azetidin-3-yl)oxy) butan-1-amine] | 2730 nM | 20.9 nM | 2.38 µM
O=C(O)Cc1cc(NCCOCCCCNCc2cc(F)c(OC(F)(F)F)c(F)c2)c2cn[nH]c2c1 [Example 198, 2-(4-((2-(4-((3,5-difluoro-4-(trifluoromethoxy)benzyl)amino)butoxy)ethyl)amino)-1H-indazol-6-yl)acetic acid] | > 50000 nM | 72.6 nM | > 3 µM
N#CCc1cc(CNCCCCOCCNc2cc(-n3cnnc3)cc3[nH]nnc23)cc(OC(F)(F)F)c1 [Example 141, 2-(3-(((4-(2-((6-(4H-1,2,4-triazol-4-yl)-1H-benzo[d][1,2,3]triazol-4-yl)amino)ethoxy)butyl)amino)methyl)-5-(trifluoromethoxy)phenyl)acetonitrile] | 17800 nM | 2.77 nM | 2.06 µM
CC(C)(C#N)c1cc(NCCOCCCCNCc2cc(CO)cc(OC(F)(F)F)c2)c2cn[nH]c2c1 [Example 206, 2-(4-((2-(4-((3-(hydroxymethyl)-5-(trifluoromethoxy)benzyl)amino)butoxy)ethyl)amino)-1H-indazol-6-yl)-2-methylpropanenitrile] | 2260 nM | 63.9 nM | 0.595 µM
O=C(CCNCc1ccc(-c2ccccc2)c(Cl)c1)NCCC(=O)Nc1cc(-n2cnnc2)cc2[nH]ncc12 [Example 12, N-(6-(4H-1,2,4-triazol-4-yl)-1H-indazol-4-yl)-3-(3-(((2-chloro-[1,1′-biphenyl]-4-yl)methyl)amino)propanamido)propanamide] | 612 nM | 0.6 nM | 6.83 µM
OCc1cc(Cl)cc(CNCCCCOC2CN(c3cc(-c4ccnnc4)cc4[nH]ncc34)C2)c1 [Example 111, (3-chloro-5-(((4-((1-(6-(pyridazin-4-yl)-1H-indazol-4-yl)azetidin-3-yl)oxy)butyl)amino)methyl)phenyl)methanol] | 2300 nM | 228 nM | 14.2 µM
O=C(CCNCc1ccc(OC(F)(F)F)c(Cl)c1)NCCCNc1cc(-c2ncno2)cc2[nH]ncc12 [Example 173, N-(3-((6-(1,2,4-oxadiazol-5-yl)-1H-indazol-4-yl)amino)propyl)-3-((3-chloro-4-(trifluoromethoxy)benzyl)amino)propanamide] | 3170 nM | 1.17 nM | 0.361 µM
Cn1c(CNCCCCOCCNc2cc(-n3cnnc3)cc3[nH]ncc23)nc2ccc(Cl)cc21 [Example 68, N-(2-(4-(((6-chloro-1-methyl-1H-benzo[d]imidazol-2-yl)methyl)amino)butoxy)ethyl)-6-(4H-1,2,4-triazol-4-yl)-1H-indazol-4-amine] | 566 nM | 136 nM | 18.7 µM
FC(F)(F)c1ccc2[nH]c(CNCCCCOCCNc3cccc4[nH]ncc34)cc2c1 [Example 94] | 5790 nM | 203 nM | 29.3 µM

Now those with a lower IC50 (CLK2), led by results:

IC50 (CLK2) | IC50 (CK2α) | IC50 (intracellular CK2α) | SMILES
494 nM | 23.5 nM | > 50 µM | Fc1cc(CNCCCCOC2CN(c3cc(-n4cnnc4)cc4[nH]ncc34)C2)ccc1OC(F)(F)F [Example 129, 4-((6-(6-(4H-1,2,4-triazol-4-yl)-1H-indazol-4-yl)azetidine-3-yl)oxy)-N-(3-fluoro-4-(trifluoromethoxy)benzyl)butan-1-amine]
416 nM | 1.37 nM | 2.16 µM | Cc1nncn1-c1cc(NCCCNC(=O)CCNCc2ccc(-c3ccccc3)c(Cl)c2)c2cn[nH]c2c1 [Example 71, 3-(((2-chloro-[1,1′-biphenyl]-4-yl)methyl)amino)-N-(3-((6-(3-methyl-4H-1,2,4-triazol-4-yl)-1H-indazol-4-yl)amino)propyl)propanamide]
264 nM | 64.2 nM | 14.9 µM | OCc1cc(CNCCCCOC2CN(c3cc(-n4cnnc4)cc4[nH]ncc34)C2)cc(C(F)(F)F)c1 [Example 104, (3-(((4-((1-(6-(4H-1,2,4-triazol-4-yl)-1H-indazol-4-yl)azetidin-3-yl)oxy)butyl)amino)methyl)-5-(trifluoromethyl)phenyl)methanol]
230 nM | 13.3 nM | 1.83 µM | Fc1cc(CNCCCCOC2CN(c3cc(-c4cnoc4)cc4[nH]ncc34)C2)ccc1OC(F)(F)F [Example 135, N-(3-fluoro-4-(trifluoromethoxy)benzyl)-4-((1-(6-(isoxazol-4-yl)-1H-indazol-4-yl)azetidin-3-yl)oxy)butan-1-amine]
124 nM | 33.1 nM | 3.35 µM | OCc1cc(Cl)cc(CNCCCCOC2CN(c3cc(-c4cnoc4)cc4[nH]ncc34)C2)c1 [Example 136, (3-chloro-5-(((4-((1-(6-(isoxazol-4-yl)-1H-indazol-4-yl)azetidin-3-yl)oxy)butyl)amino)methyl)phenyl)methanol]
112 nM | 17.5 nM | > 50 µM | O=C(CCNCc1cccc(CO)c1)NCCCNc1cc(-n2cnnc2)cc2[nH]ncc12 [Example 35, N-(3-((6-(4H-1,2,4-triazol-4-yl)-1H-indazol-4-yl)amino)propyl)-3-((3-(hydroxymethyl)benzyl)amino)propanamide]
75.9 nM | 0.47 nM | 0.0177 µM | O=C(CCNCc1ccc(OC(F)(F)F)c(Cl)c1)NCCCNc1cc(-c2cnns2)cc2[nH]ncc12 [Example 32, N-(3-((6-(1,2,3-thiadiazol-5-yl)-1H-indazol-4-yl)amino)propyl)-3-((3-chloro-4-(trifluoromethoxy)benzyl)amino)propanamide]
69.8 nM | 0.25 nM | 0.146 µM | N#Cc1n[nH]cc1-c1cc(NCCCNC(=O)CCNCc2ccc(-c3ccccc3)c(Cl)c2)c2cn[nH]c2c1 [Example 7, 3-(((2-chloro-[1,1′-biphenyl]-4-yl)methyl)amino)-N-(3-((6-(3-cyano-1H-pyrazol-4-yl)-1H-indazol-4-yl)amino)propyl)propanamide]
51.7 nM | 1.43 nM | 3.89 µM | O=C(CCNCc1cccc(Cl)c1)NCCCNc1cc(-n2cnnc2)cc2[nH]ncc12 [Example 13, N-(3-((6-(4H-1,2,4-triazol-4-yl)-1H-indazol-4-yl)amino)propyl)-3-((3-chlorobenzyl)amino)propanamide]
40.9 nM | 0.28 nM | 9.29 µM | O=C(CCNCc1ccc(-c2ccccc2CO)c(Cl)c1)NCCCNc1cc(-n2cnnc2)cc2[nH]ncc12 [Example 58, N-(3-((6-(4H-1,2,4-triazol-4-yl)-1H-indazol-4-yl)amino)propyl)-3-(((2-chloro-2′-(hydroxymethyl)-[1,1′-biphenyl]-4-yl)methyl)amino)propanamide]
